Results reported in PubChem BioAssay (NCI).
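Following 48 hours of exposure in 96-well plates, responses at five concentrations were used to interpolate endpoints linearly. GI50 is the concentration that inhibits growth by half. At the TGI there is no net growth.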

How the values were obtained:
Experiment in all cases: NCI anticancer screen, dose series, 48 h
786-0 renal = tested on: 786-0 renal
A498 renal = tested on: A498 renal
A549 NSCLC = tested on: A549 NSCLC
ACHN renal = tested on: ACHN renal
BT-549 breast = tested on: BT-549 breast
CAKI-1 renal = tested on: CAKI-1 renal
CCRF-CEM leukemia = tested on: CCRF-CEM leukemia
COLO 205 colon = tested on: COLO 205 colon
DU-145 prostate = tested on: DU-145 prostate
HCC-2998 colon = tested on: HCC-2998 colon
HCT-116 colon = tested on: HCT-116 colon
HCT-15 colon = tested on: HCT-15 colon
HL-60(TB) leukemia = tested on: HL-60(TB) leukemia
HOP-62 NSCLC = tested on: HOP-62 NSCLC
HOP-92 NSCLC = tested on: HOP-92 NSCLC
HS 578T breast = tested on: HS 578T breast
HT29 colon = tested on: HT29 colon
IGROV1 ovarian = tested on: IGROV1 ovarian
K-562 leukemia = tested on: K-562 leukemia
KM12 colon = tested on: KM12 colon
LOX IMVI melanoma = tested on: LOX IMVI melanoma
M14 melanoma = tested on: M14 melanoma
MALME-3M melanoma = tested on: MALME-3M melanoma
MCF7 breast = tested on: MCF7 breast
MDA-MB-231 breast = tested on: MDA-MB-231 breast
MOLT-4 leukemia = tested on: MOLT-4 leukemia
NCI-H226 lung = tested on: NCI-H226 lung
NCI-H23 lung = tested on: NCI-H23 lung
NCI-H460 lung = tested on: NCI-H460 lung
NCI-H522 lung = tested on: NCI-H522 lung
NCI/ADR-RES ovarian = tested on: NCI/ADR-RES ovarian
OVCAR-4 ovarian = tested on: OVCAR-4 ovarian
OVCAR-5 ovarian = tested on: OVCAR-5 ovarian
OVCAR-8 ovarian = tested on: OVCAR-8 ovarian
PC-3 prostate = tested on: PC-3 prostate
RPMI-8226 leukemia = tested on: RPMI-8226 leukemia
RXF 393 renal = tested on: RXF 393 renal
SF-268 CNS = tested on: SF-268 CNS
SF-295 CNS = tested on: SF-295 CNS
SF-539 CNS = tested on: SF-539 CNS
SK-MEL-2 melanoma = tested on: SK-MEL-2 melanoma
SK-MEL-28 melanoma = tested on: SK-MEL-28 melanoma
SK-MEL-5 melanoma = tested on: SK-MEL-5 melanoma
SK-OV-3 ovarian = tested on: SK-OV-3 ovarian
SN12C renal = tested on: SN12C renal
SNB-19 CNS = tested on: SNB-19 CNS
SNB-75 CNS = tested on: SNB-75 CNS
SR leukemia = tested on: SR leukemia
SW-620 colon = tested on: SW-620 colon
T-47D breast = tested on: T-47D breast
TK-10 renal = tested on: TK-10 renal
U251 CNS = tested on: U251 CNS
UACC-257 melanoma = tested on: UACC-257 melanoma
UACC-62 melanoma = tested on: UACC-62 melanoma
UO-31 renal = tested on: UO-31 renal

COc1ccc(-c2nn(-c3cccc(NC(=O)c4ccc5c(c4)OCCO5)c3)cc2-c2ccncc2)cc1Cl
GI50 (786-0 renal): 1780 nM | TGI (786-0 renal): 5.91 µM | GI50 (A498 renal): 422 nM | TGI (A498 renal): 3.45 µM | GI50 (A549 NSCLC): 2980 nM | TGI (A549 NSCLC): 77.5 µM | GI50 (ACHN renal): 3.82 µM | TGI (ACHN renal): > 100 µM | GI50 (BT-549 breast): 1790 nM | TGI (BT-549 breast): 7.4 µM | GI50 (CAKI-1 renal): 2630 nM | TGI (CAKI-1 renal): 15.8 µM | GI50 (CCRF-CEM leukemia): 1680 nM | TGI (CCRF-CEM leukemia): 10.3 µM | GI50 (COLO 205 colon): 1840 nM | TGI (COLO 205 colon): 4.64 µM | GI50 (DU-145 prostate): 3.99 µM | TGI (DU-145 prostate): 24.9 µM | GI50 (HCC-2998 colon): 5.48 µM | TGI (HCC-2998 colon): 17.9 µM | GI50 (HCT-116 colon): 2030 nM | TGI (HCT-116 colon): 14.5 µM | GI50 (HCT-15 colon): 1610 nM | TGI (HCT-15 colon): 22.5 µM | GI50 (HL-60(TB) leukemia): 2000 nM | TGI (HL-60(TB) leukemia): 5.96 µM | GI50 (HOP-62 NSCLC): 2940 nM | TGI (HOP-62 NSCLC): 20.8 µM | GI50 (HOP-92 NSCLC): 335 nM | TGI (HOP-92 NSCLC): 4.99 µM | GI50 (HS 578T breast): 1610 nM | TGI (HS 578T breast): 8.13 µM | GI50 (HT29 colon): 1880 nM | TGI (HT29 colon): 12.1 µM | GI50 (IGROV1 ovarian): 5.86 µM | TGI (IGROV1 ovarian): 57.2 µM | GI50 (K-562 leukemia): 710 nM | TGI (K-562 leukemia): 15.9 µM | GI50 (KM12 colon): 1390 nM | TGI (KM12 colon): 6.76 µM | GI50 (LOX IMVI melanoma): 3 µM | TGI (LOX IMVI melanoma): 13 µM | GI50 (M14 melanoma): 1570 nM | TGI (M14 melanoma): 4.28 µM | GI50 (MALME-3M melanoma): 833 nM | TGI (MALME-3M melanoma): 6.72 µM | GI50 (MCF7 breast): 1990 nM | TGI (MCF7 breast): 10.9 µM | GI50 (MDA-MB-231 breast): 2110 nM | TGI (MDA-MB-231 breast): 12.2 µM | GI50 (MOLT-4 leukemia): 2460 nM | TGI (MOLT-4 leukemia): 25.7 µM | GI50 (NCI-H226 lung): 3.3 µM | TGI (NCI-H226 lung): > 100 µM | GI50 (NCI-H23 lung): 2710 nM | TGI (NCI-H23 lung): 21.3 µM | GI50 (NCI-H460 lung): 2670 nM | TGI (NCI-H460 lung): 15.6 µM | GI50 (NCI-H522 lung): 454 nM | TGI (NCI-H522 lung): 2590 nM | GI50 (NCI/ADR-RES ovarian): 1010 nM | TGI (NCI/ADR-RES ovarian): 4.74 µM | GI50 (OVCAR-4 ovarian): 4.39 µM | TGI (OVCAR-4 ovarian): > 100 µM | GI50 (OVCAR-5 ovarian): 5.19 µM | TGI (OVCAR-5 ovarian): 29.8 µM | GI50 (OVCAR-8 ovarian): 2470 nM | TGI (OVCAR-8 ovarian): > 100 µM | GI50 (PC-3 prostate): 2120 nM | TGI (PC-3 prostate): 18.1 µM | GI50 (RPMI-8226 leukemia): 1360 nM | TGI (RPMI-8226 leukemia): 6.65 µM | GI50 (RXF 393 renal): 1230 nM | TGI (RXF 393 renal): 4.52 µM | GI50 (SF-268 CNS): 3.75 µM | TGI (SF-268 CNS): 34 µM | GI50 (SF-295 CNS): 1560 nM | TGI (SF-295 CNS): 4.43 µM | GI50 (SF-539 CNS): 1410 nM | TGI (SF-539 CNS): 3.48 µM | GI50 (SK-MEL-2 melanoma): 2360 nM | TGI (SK-MEL-2 melanoma): 7.15 µM | GI50 (SK-MEL-28 melanoma): 1900 nM | TGI (SK-MEL-28 melanoma): 11.6 µM | GI50 (SK-MEL-5 melanoma): 968 nM | TGI (SK-MEL-5 melanoma): 3.3 µM | GI50 (SK-OV-3 ovarian): 3.82 µM | TGI (SK-OV-3 ovarian): > 100 µM | GI50 (SN12C renal): 2920 nM | TGI (SN12C renal): > 100 µM | GI50 (SNB-19 CNS): 4.63 µM | TGI (SNB-19 CNS): 98.1 µM | GI50 (SNB-75 CNS): 602 nM | TGI (SNB-75 CNS): 3.5 µM | GI50 (SR leukemia): 1100 nM | TGI (SR leukemia): 5.66 µM | GI50 (SW-620 colon): 2620 nM | TGI (SW-620 colon): 19.2 µM | GI50 (T-47D breast): 2960 nM | TGI (T-47D breast): 47.7 µM | GI50 (TK-10 renal): 5.25 µM | TGI (TK-10 renal): 29.3 µM | GI50 (U251 CNS): 1180 nM | TGI (U251 CNS): 12.7 µM | GI50 (UACC-257 melanoma): 3.17 µM | TGI (UACC-257 melanoma): 20.5 µM | GI50 (UACC-62 melanoma): 1460 nM | TGI (UACC-62 melanoma): 15.9 µM | GI50 (UO-31 renal): 2570 nM | TGI (UO-31 renal): 17.3 µM
